Assay results reported in patent publication US20080031818A1, “Use of Modulators of a Novel Form of Muscle Selective Calcineurin Interacting Protein (Mcip-1-38) as a Treatment for Cardiovascular Diseases” (GILEAD COLORADO, INC., priority 2004, published 2008).

Columns and labels:
[1] = test system: neonatal rat ventricular myocytes (NRVM); test: Cardiomyocyte cell volume (Coulter counter); type: cell-based; details: 48 hours exposure to PE, versus untreated controls, FIG. 9
Protocol: NRVM culture. For preparations of neonatal rat ventricular myocytes (NRVMs), hearts were removed from 10-20 newborn (1-2 days old) Sprague-Dawley rats. Isolated ventricles were pooled, minced and dispersed by three 20-minute incubations at 37° C. in Ads buffer (116 mM NaCl, 20 mM HEPES, 10 mM NaH2PO4, 5.5 mM glucose, 5 mM KCl, […], pH 7.4) containing collagenase Type II (65 units/ml, Worthington) and pancreatin (0.6 mg/ml, GibcoBRL). Dispersed cells were applied to a discontinuous gradient of 40.5% and 58.5% (v/v) Percoll (Amersham Biosciences), centrifuged, and myocytes collected from the interface layer. […]
Hypertrophy and toxicity assays. Primary hypertrophy endpoints for NRVM included quantitation of ANF secretion, total cellular protein and cell volume. ANF in media supernatants was quantitated by competitive ELISA using a monoclonal anti-ANF antibody (Biodesign) and a biotinylated ANF peptide (Phoenix Peptide). Total cellular protein was quantitated by standard Coomassie dye-binding assay; cells were lysed in protein assay reagent (BioRad) and absorbance at A595 was measured after 1 hour. […] After recovery by centrifugation, cell pellets were washed in PBS, resuspended in 10 ml IsoFlow electrolyte solution (Beckman-Coulter) and analyzed with a Z2 Coulter Particle Counter and Size Analyzer (Beckman-Coulter). […]

beta myosin heavy chain = test: Beta myosin heavy chain protein by cytoblot; type: cell-based, rat; details: NRVM, 48 hours exposure to PE, FIG. 10A
Protocol: NRVM culture. For preparations of neonatal rat ventricular myocytes (NRVMs), hearts were removed from 10-20 newborn (1-2 days old) Sprague-Dawley rats. Isolated ventricles were pooled, minced and dispersed by three 20-minute incubations at 37° C. in Ads buffer (116 mM NaCl, 20 mM HEPES, 10 mM NaH2PO4, 5.5 mM glucose, 5 mM KCl, […], pH 7.4) containing collagenase Type II (65 units/ml, Worthington) and pancreatin (0.6 mg/ml, GibcoBRL). Dispersed cells were applied to a discontinuous gradient of 40.5% and 58.5% (v/v) Percoll (Amersham Biosciences), centrifuged, and myocytes collected from the interface layer. Myocyte preparations were pre-plated in Dulbecco's modified Eagle's medium (DMEM, Cellgro), supplemented with 10% (v/v) fetal bovine serum (FBS, HyClone), 4 mM L-glutamine and 1% penicillin/streptomycin for 1 hour at 37° C. to reduce fibroblast contamination, then plated at a density of 2.5′10^5 cells per well on 6-well tissue culture plates (or 10,000 cells/well on 96-well tissue culture plates) coated with a 0.2% (w/v) gelatin solution. After 24 hours in culture, myocyte preparations were transferred to serum-free maintenance medium (DMEM supplemented with 0.1% (v/v) Nutridoma (Roche), L-glutamine and penicillin/streptomycin). […]
Myosin heavy chain protein quantitation by cytoblot. […] Plates were read in a 96-well luminometer (Packard Fusion).

`CNC[C@H](O)c1cccc(O)c1` [phenylephrine] was tested, and the “increase in cell volume” value [1] was “approximately 50%” and the “beta myosin protein expression” value (beta myosin heavy chain) was “increased beta myosin protein expression by several fold”.
